Results as given in article PMC12040169 (PLOS Biology, 2025).

assay: in vitro; details: human, hela cells, % viability

SMILES | viability at 28.5 h, 10 µM
c1ccc2oc(-c3cncc(N4CCN(CCN5CCCC5)CC4)n3)cc2c1 [CBK066052] | 97.1%
C[C@@H](Nc1cncc(-c2ccncc2)n1)c1ccccc1 [CBK066055] | 90%
c1ccc2oc(-c3cncc(NCCc4c[nH]c5ccccc45)n3)cc2c1 [CBK066068] | 93.1%
CC(CCCC(C)(C)O)Nc1cncc(-c2ccc(C(N)=O)cc2)n1 (centres unmarked) [CBK066071] | 103%
CCOc1cccc(-c2cncc(NCCO)n2)c1 [CBK066075] | 81%
CCCC/C=C/c1cncc(NCCc2c[nH]c3ccccc23)n1 [CBK066081] | 100%
O=C(O)/C=C/c1cccc(-c2cncc(N3CCN(Cc4ccccn4)CC3)n2)c1 [CBK066085] | 96%
CC(C)(CO)CNc1cncc(-c2ccccc2CO)n1 [CBK066088] | 96.3%
OCCC1CCCCN1c1cncc(C2CCOC2)n1 (centres unmarked) [CBK066127] | 101%
COc1cc(CNc2cncc(-c3cccc(NC(C)=O)c3)n2)cc(OC)c1OC [CBK066133] | 100%
OCc1cccc(-c2cncc(N3CCN(CCN4CCCC4)CC3)n2)c1 [CBK066136] | 99.8%
COc1ccccc1-c1cn2ccnc2c(N(C)CCN(C)C)n1 [CBK066156] | 97.5%
O=C(O)CCc1ccc(-c2cn3ccnc3c(N3CCOCC3)n2)cc1 [CBK066166] | 93.6%
c1ccc(-c2cn3ccnc3c(N3CCN(c4ccncc4)CC3)n2)cc1 [CBK066177] | 110%
COc1cc(-c2cn3ccnc3c(N[C@H](CO)C(C)C)n2)cc(OC)c1OC [CBK066220] | 103%
c1ccc(Nc2nc(-c3ccc(N4CCOCC4)cc3)cn3ccnc23)cc1 [CBK066222] | 90.4%
Clc1cccc(-c2cn3ccnc3c(NCc3cccnc3)n2)c1 [CBK066237] | 104%
Brc1cn2ccnc2c(NCCc2ccccn2)n1 [CBK066244] | 92.9%
COc1cc(Nc2nc(-c3cccc(C(=O)NCCN(C)C)c3)cn3ccnc23)cc(OC)c1OC [CBK066250] | 89%
COc1ccc(Nc2nc(-c3ccc(Cl)cc3)cn3ccnc23)cn1 [CBK066254] | 113%
CCN(CCO)c1ccc(Nc2nc(-c3c(OC)cccc3OC)cn3ccnc23)cc1 [CBK066267] | 89.9%
CCCC/C=C/c1cn2ccnc2c(NCCc2ccccn2)n1 [CBK066275] | 106%
CN(C)CCN(C)c1nc(-c2ccc3[nH]ccc3c2)cn2ccnc12 [CBK066276] | 94.4%

SMILES | viability at 28.5 h, 10 µM
FC(F)C(F)(F)Oc1cccc(Nc2nccn3ccnc23)c1 [CBK066284] | 91.6%
c1ccc2cc(-c3cn4ccnc4c(NC4CCOCC4)n3)ccc2c1 [CBK066290] | 96.1%
CC(C)[C@H](CO)Nc1nc(-c2ccco2)cn2ccnc12 [CBK066316] | 103%
COc1ccc(C(C)C)cc1-c1cn2ccnc2c(NC2CCOCC2)n1 [CBK066320] | 94%
CC(=O)Nc1ccc(Nc2nc(Br)cn3ccnc23)cc1 [CBK066338] | 104%
c1ccc2c(-c3cn4ccnc4c(Nc4ccc5cn[nH]c5c4)n3)cccc2c1 [CBK066346] | 88%
c1ccc2cc(-c3cn4ccnc4c(Nc4ccc(N5CCOCC5)cc4)n3)ccc2c1 [CBK066359] | 108%
CCCNc1nc(-c2cc(OC)c(OC)c(OC)c2)cn2ccnc12 [CBK066363] | 99.2%
c1ccc2cc(-c3cn4ccnc4c(N4CCN(c5ccncc5)CC4)n3)ccc2c1 [CBK066369] | 89.2%
CCNc1nc(-c2cccc(/C=C/C(=O)O)c2)cn2ccnc12 [CBK066373] | 88.5%
CCCNc1nc(-c2cccc(O)c2)cn2ccnc12 [CBK066395] | 93.5%
COc1ccccc1-c1cn2ccnc2c(Nc2cccc(Cl)c2)n1 [CBK066399] | 89.4%
COCCNc1nc(-c2ccoc2)cn2ccnc12 [CBK066416] | 104%
CCNc1nc(-c2ccc(S(C)(=O)=O)cc2)cn2ccnc12 [CBK066452] | 87.1%
Nc1ccc(-c2cn3ccnc3c(Nc3ccc(Cl)cc3)n2)cc1 [CBK066453] | 87%
CN(C)CCN(C)c1nc(-c2ccc(C(C)(C)C)cc2)cn2ccnc12 [CBK066477] | 107%
Cc1cccc(-c2cn3ccnc3c(N3CCN(c4ccccn4)CC3)n2)c1 [CBK066478] | 89.3%
CSc1ccc(-c2cn3ccnc3c(NCCc3ccncc3)n2)cc1 [CBK066479] | 102%
CCNc1nc(-c2cc(Cl)cc(Cl)c2)cn2ccnc12 [CBK066483] | 89.6%
CCNc1nc(-c2ccc(SCC)cc2)cn2ccnc12 [CBK066489] | 114%
Clc1ccc(Nc2nc(-c3ccoc3)cn3ccnc23)cc1 [CBK066497] | 102%
Cc1csc(-c2cn3ccnc3c(N(C)CCN(C)C)n2)c1 [CBK066553] | 96.3%
CCCNc1nc(-c2ccc(F)c(F)c2)cn2ccnc12 [CBK066573] | 94.8%

SMILES | viability at 28.5 h, 10 µM
CCOc1cccc(-c2cn3ccnc3c(NCCc3ccccn3)n2)c1 [CBK066586] | 94.4%
Nc1ccc(-c2cn3ccnc3c(NCc3ccccc3)n2)cc1 [CBK066592] | 108%
CSc1ccc(-c2cn3ccnc3c(N3CCN(CCO)CC3)n2)cc1 [CBK066596] | 86.6%
c1coc(CNc2nc(-c3ccoc3)cn3ccnc23)c1 [CBK066610] | 98.8%
CCOc1cccc(-c2cn3ccnc3c(N3CCN(CCO)CC3)n2)c1 [CBK066612] | 95.9%
COc1cc(CNc2nc(-c3ccc(C(C)(C)C)cc3)cn3ccnc23)cc(OC)c1OC [CBK066615] | 99.3%
CCCNc1nc(-c2ccc(SC)cc2)cn2ccnc12 [CBK066619] | 95.5%
CCCNc1nc(-c2ccc(C)c(C)c2)cn2ccnc12 [CBK066627] | 101%
FC(F)(F)c1cccc(-c2cn3ccnc3c(NCc3ccncc3)n2)c1 [CBK066632] | 97.8%
c1ccc(CCNc2nc(-c3cccs3)cn3ccnc23)nc1 [CBK066633] | 101%
CN1CCN(c2nc(-c3ccoc3)cn3ccnc23)CC1 [CBK066645] | 97.1%
Clc1cc(Cl)cc(-c2cn3ccnc3c(NCc3ccncc3)n2)c1 [CBK066664] | 94.3%
Cc1cc(-c2cn3ccnc3c(N3CCOCC3)n2)cc(C)c1O [CBK066691] | 97.4%
OCC1CCCN1c1nc(-c2ccc(Oc3ccccc3)cc2)cn2ccnc12 (centres unmarked) [CBK066713] | 100%
CCOc1cccc(-c2cn3ccnc3c(NCc3cc(OC)c(OC)c(OC)c3)n2)c1 [CBK066717] | 96.7%
c1cn2cc(-c3ccoc3)nc(NC3CC3)c2n1 [CBK066720] | 102%
COC(=O)c1ccc(-c2cn3ccnc3c(NCc3ccncc3)n2)cc1 [CBK066734] | 88.2%
O=C1N=C(NC2CCCCCC2)SC1Cc1nc2ccccc2[nH]1 (centres unmarked) [CBK066789] | 83.7%
CCN(Cc1cncn1C)C(CC1CCCCC1)c1ccccc1 (centres unmarked) [CBK066815T] | 122%
O=C(Nc1ccc(Br)cc1C(=O)O)c1cccs1 [CBK066822] | 86.8%
COC(=O)c1sccc1Oc1ccc([N+](=O)[O-])cn1 [CBK066826] | 115%
N#Cc1cc(F)cc(F)c1NC(=O)c1cccs1 [CBK066832] | 90.2%
O=C(Nc1ccc(Br)cc1C(=O)c1ccccc1)c1ccc([N+](=O)[O-])s1 [CBK066838] | 111%

SMILES | viability at 28.5 h, 10 µM
N#Cc1sc(-c2ccc(F)cc2)cc1NC(=O)c1cccc([N+](=O)[O-])c1 [CBK066845] | 93.3%
N#Cc1ccc(-c2cccs2)nc1SCC(=O)Nc1ccc([N+](=O)[O-])cc1 [CBK066850] | 87.5%
COC(=O)c1sccc1NC(=O)c1ccccc1Cl [CBK066860] | 65.5%
Cc1sc(C(N)=O)cc1[N+](=O)[O-] [CBK066863] | 106%
CN1CCN(c2ccnc3cc(Cl)ccc23)CC1 [CBK066867C] | 86%
Cc1cc(N2CCN(CC(=O)c3ccc(Cl)cc3)CC2)c2ccccc2n1 [CBK066868] | 106%
COc1ccccc1N1CCN(CC2CN(c3ccccc3)c3ccccc3O2)CC1 (centres unmarked) [CBK066872C] | 84.7%
c1ccc(N2CCN(CC3CN(c4ccccc4)c4ccccc4O3)CC2)cc1 (centres unmarked) [CBK066876] | 86%
CN1CCN(C2c3ccccc3Oc3ccccc32)CC1 [CBK066891] | 93%
c1ccc(-c2nnc3ccccc3c2NCCCN2CCOCC2)cc1 [CBK066892] | 93.9%
c1ccc(N2CCN(C3c4ccccc4Sc4ccccc43)CC2)cc1 [CBK066894] | 92.1%
COc1ccc2nc(C)cc(N3CCOCC3)c2c1 [CBK066896] | 91.2%
CCOc1ccc(-c2cc(C(=O)N3CCN(C)CC3)c3ccccc3n2)cc1 [CBK066900] | 99%
Clc1ccc(N2CCN(c3cnc4ccccc4n3)CC2)cc1Cl [CBK066903] | 97.8%
CN1CCN(c2cc3ncccc3cc2F)CC1 [CBK066904] | 105%
COc1ccc2[nH]cc(CCNC(=O)[C@@H]3Cc4c([nH]c5ccccc45)C4(CCN(Cc5ccc(F)cc5)C4)N3)c2c1 (some centres unmarked) [CBK066937] | 98%
CC(=O)N1CCc2c([nH]c3ccccc23)C1CCN(C)Cc1ccc(F)cc1 (centres unmarked) [CBK066969] | 93.9%
Fc1ccc(OCCNCC2NCCc3c2[nH]c2ccccc32)cc1 (centres unmarked) [CBK066972] | 92.8%
O=C1N=C(NCC2CCCCC2)SC1CC(=O)N1Cc2ccccc2C1 (centres unmarked) [CBK067016] | 85.1%
Cc1c(Cl)cccc1CNC(=O)CC1SC(NCC2CCCCC2)=NC1=O (centres unmarked) [CBK067017] | 91.7%
O=c1nc(NC2CCCCC2)sc2ncccc12 [CBK067024T] | 92.6%
COc1ccc(C(=O)NCC2(c3ccc(OC)c(OC)c3)CCCCC2)c(OC)c1 [CBK067049] | 82.8%
COc1ccc(C2(CNC(=O)c3ccc(C)cc3)CCOCC2)cc1 [CBK067060] | 108%
